{
  "source": "patent US11472799B2",
  "about": "“Serine threonine kinase (AKT) degradation / disruption compounds and methods of use” (Icahn School of Medicine at Mount Sinai, priority 2018, dated 2022)",
  "data": [
    {"system": "AKT", "test": "Western blot of AKT protein levels and downstream signaling in BT474 cells", "type": "cell-based, human", "details": "Western blot (FIGS. 1, 3, 4)", "procedure": "PC-3, U87MG, HCC1143, MDA-MB-231, MDA-MB-468, BT474 and MCF-7 cell lines were purchased from ATCC. Cell lines were regularly tested in the lab for mycoplasma. All cells were cultured at 37° C. and 5% CO2. PC-3, U87MG, MDA-MB-231, MCF-7 and BT474 cells were cultured in 1×DMEM (Corning, 10-013-CV) with 10% fetal bovine serum (Atlanta Biologicals S11150) and 1× Penicillin/Streptomycin. HCC1143 cells were cultured in RPMI (Corning, 10-040-CV) medium with 10% fetal bovine serum (Atlanta Biologicals S11150) and 1× Penicillin/Streptomycin. Cells were split using 0.05% or 0.25% trypsin (Corning 25-051-Cl or 25-053-Cl, respectively) before they reached full confluence and media was changed every 3-4 days. Cells were treated with compounds individually at different concentrations for 24 hrs. Cells were treated with DMSO, VHL, or PML alone as controls.\nCells were lysed in 2× sample buffer (125 mM Tris-HCl at pH 6.8, 10% βME, 2% SDS, 20% glycerol, 0.05% Bromophenol Blue, 8 M urea). Protein lysates were loaded into 4-12% Bis-Tris gels and resolved by electrophoresis. Samples were then blotted on PVDF membrane (Millipore IPVH00010) using the wet transfer technique (Invitrogen). Membranes were blocked in 5% milk-TBST for 1 hour, washed in TBST for 10 min, and incubated in primary antibody in 5% milk-TBST or 5% BSA-TBST at 4° C. for 16 h. Membranes were rinsed (3×6 min) in TBST and incubated in horseradish peroxidase-conjugated secondary antibodies in 5% milk-TBST for 1 hour and rinsed again in TBST (3×6 min). Membranes were visualized using the chemiluminescence system (Thermo 34080, 37075) on autoradiography film (Denville E3018). Primary Antibodies: R-actin (Sigma A5316), p-AKT (Ser473 CST-9721), total AKT (CST-9272), p-S6 (Ser240/244, CST-5364), p-PRAS40 (Thr246, CST-2997). Secondary Antibodies: Mouse (Thermo 31432), Rabbit (Thermo 31460).", "values": [
      {"smiles": "Cc1ncsc1-c1ccc(CNC(=O)[C@@H]2C[C@@H](O)CN2C(=O)[C@@H](NC(=O)CCCCCCCC(=O)N2CCN(CC[C@H](NC(=O)C3(N)CCN(c4ncnc5[nH]ccc45)CC3)c3ccc(Cl)cc3)CC2)C(C)(C)C)cc1", "note": "[XF050-19, 4-amino-N-((S)-1-(4-chlorophenyl)-3-(4-(9-(((S)-1-((2S,4R)-4-hydroxy-2-((4-(4-methylthiazol-5-yl)benzyl)carbamoyl)pyrrolidin-1-yl)-3,3-dimethyl-1-oxobutan-2-yl)amino)-9-oxononanoyl)piperazin-1-yl)propyl)-1-(7H-pyrrolo[2,3-d]pyrimidin-4-yl)piperidine-4-carboxamide]", "suppression of AKT protein level and AKT activity": "effective in suppressing both AKT protein level and AKT activity"},
      {"smiles": "NC1(C(=O)N[C@@H](CCN2CCN(C(=O)CCOCCOCCOCCOCCOCCOCCOCCOCCNc3cccc4c3C(=O)N(C3CCC(=O)NC3=O)C4=O)CC2)c2ccc(Cl)cc2)CCN(c2ncnc3[nH]ccc23)CC1", "note": "(stereo partly drawn) [XF056-34, 4-amino-N-((1S)-1-(4-chlorophenyl)-3-(4-(1-((2-(2,6-dioxopiperidin-3-yl)-1,3-dioxoisoindolin-4-yl)amino)-3,6,9,12,15,18,21,24-octaoxaheptacosan-27-oyl)piperazin-1-yl)propyl)-1-(7H-pyrrolo[2,3-d]pyrimidin-4-yl)piperidine-4-carboxamide]", "suppression of AKT protein level and AKT activity": "effective in suppressing both AKT protein level and AKT activity"},
      {"smiles": "C[C@@H]1C[C@@H](O)c2ncnc(N3CCN(C(=O)[C@H](CNCCC(=O)NCCCCCCCNc4cccc5c4C(=O)N(C4CCC(=O)NC4=O)C5=O)c4ccc(Cl)cc4)CC3)c21", "note": "(stereo partly drawn) [XF048-5, 3-(((S)-2-(4-chlorophenyl)-3-(4-((5R,7R)-7-hydroxy-5-methyl-6,7-dihydro-5H-cyclopenta[d]pyrimidin-4-yl)piperazin-1-yl)-3-oxopropyl)amino)-N-(7-((2-(2,6-dioxopiperidin-3-yl)-1,3-dioxoisoindolin-4-yl)amino)heptyl)propanamide]", "suppression of AKT protein level and AKT activity": "effective in suppressing both AKT protein level and AKT activity"},
      {"smiles": "Cc1ncsc1-c1ccc(CNC(=O)[C@@H]2C[C@@H](O)CN2C(=O)[C@@H](NC(=O)COCCOCC(=O)N2CCN(CC[C@H](NC(=O)C3(N)CCN(c4ncnc5[nH]ccc45)CC3)c3ccc(Cl)cc3)CC2)C(C)(C)C)cc1", "note": "[XF050-7, 4-amino-N-((S)-1-(4-chlorophenyl)-3-(4-(2-(2-(2-(((S)-1-((2S,4R)-4-hydroxy-2-((4-(4-methylthiazol-5-yl)benzyl)carbamoyl)pyrrolidin-1-yl)-3,3-dimethyl-1-oxobutan-2-yl)amino)-2-oxoethoxy)ethoxy)acetyl)piperazin-1-yl)propyl)-1-(7H-pyrrolo[2,3-d]pyrimidin-4-yl)piperidine-4-carboxamide]", "suppression of AKT protein level and AKT activity": "effective in suppressing both AKT protein level and AKT activity"},
      {"smiles": "Cc1ncsc1-c1ccc(CNC(=O)[C@@H]2C[C@@H](O)CN2C(=O)[C@@H](NC(=O)CCCCCC(=O)N2CCN(CC[C@H](NC(=O)C3(N)CCN(c4ncnc5[nH]ccc45)CC3)c3ccc(Cl)cc3)CC2)C(C)(C)C)cc1", "note": "[XF050-17, 4-amino-N-((S)-1-(4-chlorophenyl)-3-(4-(7-(((S)-1-((2S,4R)-4-hydroxy-2-((4-(4-methylthiazol-5-yl)benzyl)carbamoyl)pyrrolidin-1-yl)-3,3-dimethyl-1-oxobutan-2-yl)amino)-7-oxoheptanoyl)piperazin-1-yl)propyl)-1-(7H-pyrrolo[2,3-d]pyrimidin-4-yl)piperidine-4-carboxamide]", "suppression of AKT protein level and AKT activity": "effective in suppressing both AKT protein level and AKT activity"},
      {"smiles": "Cc1ncsc1-c1ccc(CNC(=O)[C@@H]2C[C@@H](O)CN2C(=O)[C@@H](NC(=O)CCCCCCCCC(=O)N2CCN(CC[C@H](NC(=O)C3(N)CCN(c4ncnc5[nH]ccc45)CC3)c3ccc(Cl)cc3)CC2)C(C)(C)C)cc1", "note": "[XF050-20, 4-amino-N-((S)-1-(4-chlorophenyl)-3-(4-(10-(((S)-1-((2S,4R)-4-hydroxy-2-((4-(4-methylthiazol-5-yl)benzyl)carbamoyl)pyrrolidin-1-yl)-3,3-dimethyl-1-oxobutan-2-yl)amino)-10-oxodecanoyl)piperazin-1-yl)propyl)-1-(7H-pyrrolo[2,3-d]pyrimidin-4-yl)piperidine-4-carboxamide]", "suppression of AKT protein level and AKT activity": "effective in suppressing both AKT protein level and AKT activity"},
      {"smiles": "C[C@@H]1C[C@@H](O)c2ncnc(N3CCN(C(=O)[C@H](CNCCC(=O)NCCOCCOCCOCCOCCNc4cccc5c4C(=O)N(C4CCC(=O)NC4=O)C5=O)c4ccc(Cl)cc4)CC3)c21", "note": "(stereo partly drawn) [XF038-176A, 3-(((S)-2-(4-chlorophenyl)-3-(4-((5R,7R)-7-hydroxy-5-methyl-6,7-dihydro-5H-cyclopenta[d]pyrimidin-4-yl)piperazin-1-yl)-3-oxopropyl)amino)-N-(14-((2-(2,6-dioxopiperidin-3-yl)-1,3-dioxoisoindolin-4-yl)amino)-3,6,9,12-tetraoxatetradecyl)propanamide]", "suppression of AKT protein level and AKT activity": "effective in suppressing both AKT protein level and AKT activity"},
      {"smiles": "C[C@@H]1C[C@@H](O)c2ncnc(N3CCN(C(=O)[C@H](CNCCC(=O)NCCOCCOCCOCCOCCOCCNc4cccc5c4C(=O)N(C4CCC(=O)NC4=O)C5=O)c4ccc(Cl)cc4)CC3)c21", "note": "(stereo partly drawn) [XF038-177A, 3-(((S)-2-(4-chlorophenyl)-3-(4-((5R,7R)-7-hydroxy-5-methyl-6,7-dihydro-5H-cyclopenta[d]pyrimidin-4-yl)piperazin-1-yl)-3-oxopropyl)amino)-N-(17-((2-(2,6-dioxopiperidin-3-yl)-1,3-dioxoisoindolin-4-yl)amino)-3,6,9,12,15-pentaoxaheptadecyl) propanamide]", "suppression of AKT protein level and AKT activity": "effective in suppressing both AKT protein level and AKT activity"},
      {"smiles": "C[C@@H]1C[C@@H](O)c2ncnc(N3CCN(C(=O)[C@H](CNCCC(=O)NCCOCCOCCNc4cccc5c4C(=O)N(C4CCC(=O)NC4=O)C5=O)c4ccc(Cl)cc4)CC3)c21", "note": "(stereo partly drawn) [XF048-7, 3-(((S)-2-(4-chlorophenyl)-3-(4-((5R,7R)-7-hydroxy-5-methyl-6,7-dihydro-5H-cyclopenta[d]pyrimidin-4-yl)piperazin-1-yl)-3-oxopropyl)amino)-N-(2-(2-(2-((2-(2,6-dioxopiperidin-3-yl)-1,3-dioxoisoindolin-4-yl)amino)ethoxy)ethoxy)ethyl) propanamide]", "suppression of AKT protein level and AKT activity": "effective in suppressing both AKT protein level and AKT activity"},
      {"smiles": "NC1(C(=O)N[C@@H](CCN2CCN(C(=O)CCOCCOCCNc3cccc4c3C(=O)N(C3CCC(=O)NC3=O)C4=O)CC2)c2ccc(Cl)cc2)CCN(c2ncnc3[nH]ccc23)CC1", "note": "(stereo partly drawn) [XF050-30, 4-amino-N-((1S)-1-(4-chlorophenyl)-3-(4-(3-(2-(2-((2-(2,6-dioxopiperidin-3-yl)-1,3-dioxoisoindolin-4-yl)amino)ethoxy)ethoxy)propanoyl)piperazin-1-yl)propyl)-1-(7H-pyrrolo[2,3-d]pyrimidin-4-yl)piperidine-4-carboxamide]", "suppression of AKT protein level and AKT activity": "effective in suppressing both AKT protein level and AKT activity"},
      {"smiles": "NC1(C(=O)N[C@@H](CCN2CCN(C(=O)CCOCCOCCOCCOCCOCCOCCOCCOCCOCCNc3cccc4c3C(=O)N(C3CCC(=O)NC3=O)C4=O)CC2)c2ccc(Cl)cc2)CCN(c2ncnc3[nH]ccc23)CC1", "note": "(stereo partly drawn) [XF056-35, 4-amino-N-((1S)-1-(4-chlorophenyl)-3-(4-(1-((2-(2,6-dioxopiperidin-3-yl)-1,3-dioxoisoindolin-4-yl)amino)-3,6,9,12,15,18,21,24,27-nonaoxatriacontan-30-oyl)piperazin-1-yl)propyl)-1-(7H-pyrrolo[2,3-d]pyrimidin-4-yl)piperidine-4-carboxamide]", "suppression of AKT protein level and AKT activity": "effective in suppressing both AKT protein level and AKT activity"},
      {"smiles": "Cc1ncsc1-c1ccc(CNC(=O)[C@@H]2C[C@@H](O)CN2C(=O)[C@@H](NC(=O)COCC(=O)N2CCN(CC[C@H](NC(=O)C3(N)CCN(c4ncnc5[nH]ccc45)CC3)c3ccc(Cl)cc3)CC2)C(C)(C)C)cc1", "note": "[XF050-5, 4-amino-N-((S)-1-(4-chlorophenyl)-3-(4-(2-(2-(((S)-1-((2S,4R)-4-hydroxy-2-((4-(4-methylthiazol-5-yl)benzyl)carbamoyl)pyrrolidin-1-yl)-3,3-dimethyl-1-oxobutan-2-yl)amino)-2-oxoethoxy)acetyl)piperazin-1-yl)propyl)-1-(7H-pyrrolo[2,3-d]pyrimidin-4-yl)piperidine-4-carboxamide]", "suppression of AKT protein level and AKT activity": "effective in suppressing both AKT protein level and AKT activity"}
    ]}
  ]
}
